Data: ChEMBL document CHEMBL1158887, “Novel chromone derivatives from the fungus Aspergillus versicolor isolated from the marine sponge Xestospongia exigua” (J Nat Prod, 2003)
Active and inactive are the calls of the source. The rule behind the calls is not given here.

How the values were obtained:
Format in all cases: functional, organism-based
Saccharomyces cerevisiae = test: Antimicrobial activity against Saccharomyces cerevisiae DMS 1333 at 5 and 10 ug after 24 hrs by agar diffusion method
Escherichia coli = test: Antimicrobial activity against Escherichia coli DMS 10290 at 5 and 10 ug after 24 hrs by agar diffusion method
Bacillus subtilis = test: Antimicrobial activity against Bacillus subtilis DMS 2109 at 5 and 10 ug after 24 hrs by agar diffusion method

What does the source list for `COC1(C)Cc2ccc3c(=O)c(C)c(C)oc3c2CO1` (stereo not drawn)?
Activity (Saccharomyces cerevisiae): inactive; Activity (Escherichia coli): inactive; Activity (Bacillus subtilis): inactive

How did the Activity (Saccharomyces cerevisiae) turn out when `COC1OC(C)=Cc2ccc3c(=O)c(C)c(C)oc3c21` (stereo not drawn) was run?
The Activity was “inactive”.

And the Activity (Escherichia coli)?
Its Activity is “inactive”.

And the Activity (Bacillus subtilis)?
Its Activity is “inactive”.

Which Activity (Saccharomyces cerevisiae) does the source give for `Cc1cc2ccc3c(=O)c(C)c(C)oc3c2cn1` here?
Its Activity is “inactive”.

And the Activity (Escherichia coli)?
Its Activity is “inactive”.
